Patent US20170003292A1, “PAXIP1 AS A BIOMARKER FOR WEE1 INHIBITOR THERAPY” (H. LEE MOFFITT CANCER CENTER AND RESEARCH INSTITUT INC., priority 2014, published 2017)

Key:
Type in all cases: cell-based
lung cancer cell lines = test: small-molecule inhibitor screen, apoptosis in lung cancer cell lines; conditions: AZD1775 in combination with cisplatin; multiple lung cancer cell lines
Excerpt: Since posttranslational phosphorylations are used by the DDR to coordinate cellular response to damage, 18 kinases found in this tBRCT PPIN were examined using a small-molecule inhibitor screen.

WEE1 = test: p-CDC2 (p-CDK1) blots as marker for WEE1 inhibition in lung cancer cell lines; conditions: 15 lung cancer cell lines; AZD1775 as single agent or in combination with cisplatin; in lines with detectable (or elevated) PAXIP1 and WEE1
Excerpt: FIG. 2 is a series of blots showing PAXIP1, WEE1, and p-CDC2 (a.k.a. p-CDK1) levels in lung cancer cell lines treated with AZD1775 and Cisplatin. D: DMSO; M: AZD1775 only; C: Cisplatin only; M+C: AZD1775 and Cisplatin combination. AZD1775 is an ATP mimetic that targets the kinase activity of WEE1 and is currently being evaluated in clinical trials for several tumor types. Phosphorylation of CDC2 (a.k.a. CDK1) by WEE1 can be used as a marker for WEE1 inhibition.

H322 cells [1] = test: mitotic index at the G2/M checkpoint in H322 cells overexpressing full length PAXIP1; conditions: H322 cells with overexpression of full length PAXIP1, after AZD1775 treatment
H322 cells [2] = test: caspase-3 mediated apoptosis in H322 cells overexpressing PAXIP1; conditions: PAXIP1 overexpression, treated over 72 hours, compared to cells with low levels of PAXIP1
[3] = system: lung cancer cell lines H322, H1648, H1395, H157; test: cell viability by CellTiterGlo with synergy scores (Bliss model of independence); conditions: cells that express both PAXIP1 and WEE1; 72 h treatment; combination with cisplatin
Description: Lung adenocarcinoma cell lines 1-H322 (FIGS. 5A, 5B), H1648 (FIGS. 5E, 5F) and H1395 (FIGS. 5G, 5H) and a squamous lung cancer cell line H157 (FIG. 5C, 5D) were treated with AZD1775 and cisplatin either alone or in combination for 1 h and p-CDK1, PAXIP1 and WEE1 levels were measured (FIGS. 5A, 5C, 5E, […]). Cell lines were treated with AZD1775 and cisplatin for 72 h, cell viability was measured by CellTiterGlo and synergy scores were calculated (FIGS. 5B, 5D, 5F, 5H). Depicted in FIGS. 5B, 5D, 5F, and 5H are the three-dimensional dose-response surface curves with various combinations of drug concentrations (left) and the deviation from expected additive values determined by Bliss model of independence (right).

[4] = system: WEE1 and PAXIP1 positive patient-derived xenografts (PDX); test: 3-D clonogenic assay of patient-derived xenograft (PDX) lung tumors, Chou-Talalay combination index; conditions: combination with cisplatin
Excerpt: Two tumors that were selected from a TMA of 68 lung tumors for 3-D clonogenic assays to test synergy of the combination of AZD1775 and cisplatin in these tumors. FIGS. 7A and 7C show percentage of tumor inhibition with different concentrations of AZD1775 and cisplatin. FIGS. 7B and 7D show combination index (CI) values obtained by applying the chou-[…] analysis to the percent inhibition values.

C=CCn1c(=O)c2cnc(Nc3ccc(N4CCN(C)CC4)cc3)nc2n1-c1cccc(C(C)(C)O)n1 [AZD1775, 2-allyl-1-(6-(2-hydroxypropan-2-yl)pyridin-2-yl)-6-((4-(4-methylpiperazin-1-yl)phenyl)amino)-1H-pyrazolo[3,4-d]pyrimidin-3(2H)-one]
apoptosis (lung cancer cell lines): significant apoptosis | CDC2 phosphorylation (WEE1): repression of CDC2 phosphorylation | mitotic index at the G2/M checkpoint (H322 cells [1]): increased mitotic index | caspase-3 mediated apoptosis (H322 cells [2]): sustained increase in apoptosis | caspase-3 mediated apoptosis (H322 cells [2]; listed as AZD 1775): sustained increase in caspase-3 mediated apoptosis | synergy of AZD1775 and cisplatin (cell viability) [3]: exhibit synergy | synergy of AZD1775 and cisplatin (tumor inhibition, combination index) [4]: exhibit synergy
